Measured values from patent US10058550B2, “Methods of treating heart failure” (priority 2015, dated 2018).

Each compound was assayed against human APJ receptor (Homo sapiens (Human), UniProt P35414) (assay: biochemical). Settings: read-out: Activity hAPJ SPA EC50 IP.
Format: biochemical
Method in brief: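 Agonist-stimulated [35S]GTPγS (0.2 nM) binding was read by SPA after 90 min at room temperature. Buffer: 20 mM HEPES pH 7.5 with 5 mM MgCl2, 200 mM NaCl, 3 μM GDP, 0.1% BSA; membranes were from a stable human APJ CHO line. EC50 values are averages of independent runs, fitted by non-linear regression.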

Chain of human APJ receptor (P35414 whole entry): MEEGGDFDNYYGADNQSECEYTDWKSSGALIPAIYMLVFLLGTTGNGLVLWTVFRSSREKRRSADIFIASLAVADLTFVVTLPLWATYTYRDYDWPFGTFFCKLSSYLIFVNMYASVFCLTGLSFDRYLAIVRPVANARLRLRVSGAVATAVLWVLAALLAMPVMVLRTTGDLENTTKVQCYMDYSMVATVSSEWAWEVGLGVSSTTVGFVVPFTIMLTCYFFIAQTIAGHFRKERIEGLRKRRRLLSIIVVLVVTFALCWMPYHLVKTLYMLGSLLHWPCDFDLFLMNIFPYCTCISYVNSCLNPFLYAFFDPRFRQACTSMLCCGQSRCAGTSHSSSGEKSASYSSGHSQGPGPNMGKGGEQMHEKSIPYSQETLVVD

Structure (SMILES) | EC50 [nM]
COc1ncnc(OC)c1-n1c(NS(=O)(=O)[C@@H](C)[C@H](OC)c2ncc(C)cn2)nnc1-c1ccccn1 [Example 628.0, (1R,2S)-N-(4-(4,6-dimethoxy-5-pyrimidinyl)-5-(2-pyridinyl)-4H-1,2,4-triazol-3-yl)-1-methoxy-1-(5-methyl-2-pyrimidinyl)-2-propanesulfonamide] | 6.5
COc1cccc(OC)c1-n1c(NS(=O)(=O)[C@@H](C)[C@H](OC)c2ncc(C)cn2)nnc1-c1ccccn1 [Example 629.0, (1R,2S)-N-(4-(2,6-dimethoxyphenyl)-5-(2-pyridinyl)-4H-1,2,4-triazol-3-yl)-1-methoxy-1-(5-methyl-2-pyrimidinyl)-2-propanesulfonamide] | 1.6
COCCOc1cccc(-c2nnc(NS(=O)(=O)[C@@H](C)[C@H](C)c3ncc(F)cn3)n2-c2c(OC)cccc2OC)n1 [Example 638.0, (2S,3R)-N-(4-(2,6-dimethoxyphenyl)-5-(6-(2-methoxyethoxy)pyridin-2-yl)-4H-1,2,4-triazol-3-yl)-3-(5-fluoropyrimidin-2-yl)butane-2-sulfonamide] | 0.65
CNc1cccc(-c2nnc(NS(=O)(=O)[C@@H](C)[C@H](C)c3ncc(F)cn3)n2-c2c(OC)cccc2OC)n1 [Example 641.0, (2S,3R)-N-(4-(2,6-dimethoxyphenyl)-5-(6-(methylamino)pyridin-2-yl)-4H-1,2,4-triazol-3-yl)-3-(5-fluoropyrimidin-2-yl)butane-2-sulfonamide] | 0.14
COc1cccc(OC(F)F)c1-n1c(NS(=O)(=O)[C@@H](C)[C@H](OC)c2ncc(C)cn2)nnc1-c1cccnc1 [Example 667.0, (1R,2S,P)-N-(4-(2-(difluoromethoxy)-6-methoxyphenyl)-5-(3-pyridinyl)-4H-1,2,4-triazol-3-yl)-1-methoxy-1-(5-methyl-2-pyrimidinyl)-2-propanesulfonamide and (1R,2S,M)-N-(4-(2-(difluoromethoxy)-6-methoxyphenyl)-5-(3-pyridinyl)-4H-1,2,4-triazol-3-yl)-1-methoxy-1-(5-methyl-2-pyrimidinyl)-2-propanesulfonamide] | 2.6
COc1cccc(OC(F)F)c1-n1c(NS(=O)(=O)[C@@H](C)[C@H](OC)c2ncc(C)cn2)nnc1-c1cncc(C)c1 [Example 668.0, (1R,2S,P)-N-(4-(2-(difluoromethoxy)-6-methoxyphenyl)-5-(5-methyl-pyridinyl)-4H-1,2,4-triazol-3-yl)-1-methoxy-1-(5-methyl-2-pyrimidinyl)-2-propanesulfonamide and (1R,2S,M)-N-(4-(2-(difluoromethoxy)-6-methoxyphenyl)-5-(5-methyl-3-pyridinyl)-4H-1,2,4-triazol-3-yl)-1-methoxy-1-(5-methyl-2-pyrimidinyl)-2-propanesulfonamide] | 0.76
CO[C@H](c1ncc(C)cn1)[C@H](C)S(=O)(=O)Nc1nnc(-c2cccnc2)n1-c1c(OC(F)F)cccc1OC(F)F [Example 669.0, (1R,2S)-N-(4-(2,6-bis(difluoromethoxy)phenyl)-5-(3-pyridinyl)-4H-1,2,4-triazol-3-yl)-1-methoxy-1-(5-methyl-2-pyrimidinyl)-2-propanesulfonamide] | 2.7
CO[C@H](c1ncc(C)cn1)[C@H](C)S(=O)(=O)Nc1nnc(-c2cncc(C)c2)n1-c1c(OC(F)F)cccc1OC(F)F [Example 670.0, (1R,2S)-N-(4-(2,6-bis(difluoromethoxy)phenyl)-5-(5-methyl-3-pyridinyl)-4H-1,2,4-triazol-3-yl)-1-methoxy-1-(5-methyl-2-pyrimidinyl)-2-propanesulfonamide] | 0.55
CO[C@H](c1ncc(C)cn1)[C@H](C)S(=O)(=O)Nc1nnc(-c2cncc(C)c2)n1-c1c(Cl)cccc1Cl [Example 675.0, (1R,2S)-N-(4-(2,6-dichlorophenyl)-5-(5-methyl-3-pyridinyl)-4H-1,2,4-triazol-3-yl)-1-methoxy-1-(5-methyl-2-pyrimidinyl)-2-propanesulfonamide 2,2,2-trifluoroacetate] | 2.6
COc1cccc(-c2nnc(NS(=O)(=O)CCc3ncc(F)cn3)n2-c2c(OC)cccc2OC)n1 [Example 676.0, N-(4-(2,6-dimethoxyphenyl)-5-(6-methoxy-2-pyridinyl)-4H-1,2,4-triazol-3-yl)-2-(5-fluoro-2-pyrimidinyl)ethanesulfonamide 2,2,2-trifluoroacetate] | 6
CO[C@H](c1ncc(C)cn1)[C@H](C)S(=O)(=O)Nc1nnc(-c2cncc(C)c2)n1-c1c(F)cccc1F [Example 677.0, (1R,2S)-N-(4-(2,6-difluorophenyl)-5-(5-methylpyridin-3-yl)-4H-1,2,4-triazol-3-yl)-1-methoxy-1-(5-methylpyrimidin-2-yl)propane-2-sulfonamide 2,2,2-trifluoroacetate] | 7.2
COc1cnc([C@@H](C)[C@H](C)S(=O)(=O)Nc2nnc(-c3cncc(C)c3)n2-c2c(OC)cccc2OC)nc1 [Example 682.0, (2S,3R)-N-(4-(2,6-dimethoxyphenyl)-5-(5-methyl-3-pyridinyl)-4H-1,2,4-triazol-3-yl)-3-(5-methoxy-2-pyrimidinyl)-2-butanesulfonamide 2,2,2-trifluoroacetate] | 0.2
COc1cccc(-c2nnc(NS(=O)(=O)[C@@H](C)[C@H](OC)c3ncc(C)cn3)n2-c2c(F)cccc2F)n1 [Example 684.0, (1R,2S)-N-(4-(2,6-difluorophenyl)-5-(6-methoxy-2-pyridinyl)-4H-1,2,4-triazol-3-yl)-1-methoxy-1-(5-methyl-2-pyrimidinyl)-2-propanesulfonamide] | 0.81
COc1cnc([C@@H](OC)[C@@H](C)S(=O)(=O)Nc2nnc(-c3cncc(C)c3)n2-c2c(OC)cccc2OC)nc1 [Example 687.0, (1R,2R)-N-(4-(2,6-dimethoxyphenyl)-5-(5-methyl-3-pyridinyl)-4H-1,2,4-triazol-3-yl)-1-methoxy-1-(5-methoxy-2-pyrimidinyl)-2-propanesulfonamide 2,2,2-trifluoroacetate] | 4.7
COc1ncnc(OC)c1-n1c(NS(=O)(=O)[C@@H](C)[C@H](C)c2ncc(Cl)cn2)nnc1-c1cccnc1 [Example 709.0, (2S,3R)-3-(5-chloro-2-pyrimidinyl)-N-(4-(4,6-dimethoxy-5-pyrimidinyl)-5-(3-pyridinyl)-4H-1,2,4-triazol-3-yl)-2-butanesulfonamide] | 0.71
COc1cccc(-c2nnc(NS(=O)(=O)[C@@H](C)[C@H](C)c3ncc(Cl)cn3)n2-c2c(OC)ncnc2OC)n1 [Example 710.0, (2S,3R)-3-(5-chloro-2-pyrimidinyl)-N-(4-(4,6-dimethoxy-5-pyrimidinyl)-5-(6-methoxy-2-pyridinyl)-4H-1,2,4-triazol-3-yl)-2-butanesulfonamide] | 0.21
COc1cccc(OC)c1-n1c(NS(=O)(=O)[C@@H](C)[C@@H](OC(C)C)c2ncc(C)cn2)nnc1-c1cccc(C)n1 [Example 738.0, (1S,2S)-N-(4-(2,6-dimethoxyphenyl)-5-(6-methylpyridin-2-yl)-4H-1,2,4-triazol-3-yl)-1-isopropoxy-1-(5-methylpyrimidin-2-yl)propane-2-sulfonamide] | 0.1
COc1cccc(OC)c1-n1c(NS(=O)(=O)[C@@H](C)[C@H](OC)c2ncc(C3=CCOCC3)cn2)nnc1-c1cncc(C)c1 [Example 749.0, (1R,2S)-1-(5-(3,6-dihydro-2H-pyran-4-yl)pyrimidin-2-yl)-N-(4-(2,6-dimethoxyphenyl)-5-(5-methylpyridin-3-yl)-4H-1,2,4-triazol-3-yl)-1-methoxypropane-2-sulfonamide] | 15
COc1cccc(OC)c1-n1c(NS(=O)(=O)[C@@H](C)[C@H](OC)c2ncc(-c3cccnc3)cn2)nnc1-c1cncc(C)c1 [Example 752.0, (1R,2S)—N-(4-(2,6-dimethoxyphenyl)-5-(5-methylpyridin-3-yl)-4H-1,2,4-triazol-3-yl)-1-methoxy-1-(5-(pyridin-3-yl)pyrimidin-2-yl)propane-2-sulfonamide] | 3.6
Cc1cnc([C@@H](C)[C@H](C)S(=O)(=O)Nc2nnc(-c3cncc(C)c3)n2-c2c(OC(F)F)cccc2OC(F)F)nc1 [Example 763.0, (2S,3R)—N-(4-(2,6-bis(difluoromethoxy)phenyl)-5-(5-methylpyridin-3-yl)-4H-1,2,4-triazol-3-yl)-3-(5-methylpyrimidin-2-yl)butane-2-sulfonamide] | 0.71
COc1ncnc(OC)c1-n1c(NS(=O)(=O)[C@@H](C)[C@H](C)c2cnc(C)cn2)nnc1-c1ccccn1 [Example 773.0, (2S,3R)-N-(4-(4,6-dimethoxy-5-pyrimidinyl)-5-(2-pyridinyl)-4H-1,2,4-triazol-3-yl)-3-(5-methyl-2-pyrazinyl)-2-butanesulfonamide] | 14
COc1cccc(OC)c1-n1c(NS(=O)(=O)[C@@H](C)[C@H](C)c2cnc(C)cn2)nnc1-c1ccccn1 [Example 774.0, (2S,3R)-N-(4-(2,6-dimethoxyphenyl)-5-(2-pyridinyl)-4H-1,2,4-triazol-3-yl)-3-(5-methyl-2-pyrazinyl)-2-butanesulfonamide] | 8.2
COc1cccc(OC)c1-n1c(NS(=O)(=O)[C@@H](C)[C@H](C)c2ncc(C)cn2)nnc1-c1ccccn1 [Example 775.0, (2S,3R)-N-(4-(2,6-dimethoxyphenyl)-5-(2-pyridinyl)-4H-1,2,4-triazol-3-yl)-3-(5-methyl-2-pyrimidinyl)-2-butanesulfonamide] | 2.1
COc1ncnc(OC)c1-n1c(NS(=O)(=O)[C@@H](C)[C@H](C)c2ncc(C)cn2)nnc1-c1ccccn1 [Example 776.0, (2S,3R)-N-(4-(4,6-dimethoxy-5-pyrimidinyl)-5-(2-pyridinyl)-4H-1,2,4-triazol-3-yl)-3-(5-methyl-2-pyrimidinyl)-2-butanesulfonamide] | 3.9
COc1ncnc(OC)c1-n1c(NS(=O)(=O)[C@@H](C)[C@@H](OC(C)C)c2ncc(C)cn2)nnc1-c1ccccn1 [Example 777.0, (1S,2S)-N-(4-(4,6-dimethoxy-5-pyrimidinyl)-5-(2-pyridinyl)-4H-1,2,4-triazol-3-yl)-1-(1-methylethoxy)-1-(5-methyl-2-pyrimidinyl)-2-propanesulfonamide] | 2.2
